According to patent US20230062278A1, “COMPOUNDS FOR THE TREATMENT OF MYELOFIBROSIS” (ACTUATE THERAPEUTICS, INC., priority 2019, published 2023):

What was measured:
[1] = test system: peripheral blood mononuclear cells from MF patients; assay: ex vivo colony assay in methylcellulose, primary cells from MF patients; format: cell-based, human
Experimental: (§1) In order to study the effects of 9-ING-41 (alone and in combination with Ruxolitinib) on growth and proliferation in MF, ex vivo colony assays were conducted using primary cells from patients with previously untreated MF and normal bone marrow. The experiments were designed to assess the number, size, and morphology of stem/progenitor cells present in blood both with and without treatment.
(§2) Peripheral blood mononuclear cells from MF patients and bone marrow from healthy patients (control) were plated in methylcellulose in duplicate, containing cytokines, in the presence of either DMSO only, 9-ING-41 only, or a combination of 9-ING-41 and Ruxolitinib (0.05uM). Colonies were counted ten days later, and colony growth frequency, distribution, and morphology were calculated.

[2] = test system: bone marrow from healthy patients; assay: ex vivo colony assay in methylcellulose, normal bone marrow (control); format: cell-based, human; settings: 9-ING-41 alone
Experimental: as §1, §2

[3] = test system: renal cell carcinoma cell lines; settings: renal cell carcinoma cell lines (Pal 2014); cited from earlier work

SMILES: Cn1cc(C2=C(c3coc4ccc(F)cc34)C(=O)NC2=O)c2cc3c(cc21)OCO3 [9-ING-41, 3-(5-fluorobenzofuran-3-yl)-4-(5-methyl-5H-[1,3]dioxolo[4,5-f]indol-7-yl)pyrrole-2,5-dione]
- primitive granulocytic/erythroid/macrophage/monocyte (GEMM) colony growth ([1]; 9-ING-41 only, MF cases as compared to normal, counted after ten days, FIGS. 1A, 1D, 2A, 2C): increased relative to 9-ING-41 concentration
- size and presence of primitive colonies ([1]; MF cases 1 and 2, Ruxolitinib 0.05 µM where combined): increase in very large, fully differentiated primitive colonies
- presence of erythroid (BFU-E), granulocytic (CFU-G) and granulocytic/monocytic (CFU-GM) colonies ([1]; after addition of 9-ING-41, colonies counted ten days after plating, vs DMSO): remained proportionally the same
- colony size [2]: modest increase in colony size
- antiproliferative activity: cell-cycle effect [3]: G0-G1 and G2-M phase arrest
